For 17 compounds, T/C results are on record in PubChem BioAssay AID256 (DTP/NCI, 2004).

Values joined by “and” are separate entries in the source; they are usually repeats but may differ in a detail not shown here. Equal entries are not always repeated. Inconclusive results and toxic doses are left out.

The experiment deals with CD2F1 mice, L1210 leukemia ip, survival T/C. In words: NCI In Vivo Anticancer Drug Screen. Data for tumor model L1210 Leukemia (intraperitoneal) in CD2F1 (CDF1) mice. As to conditions: higher = longer survival. In outline: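 Activity against a transplanted murine tumor was judged by comparing the compound group with a vehicle group. The outcome in the treated animals was divided by that in the controls.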

Setting [1] is: endpoint: mean survival time, dose: 100.0 mg/kg/injection, schedule: Q04DX003 (ip), vehicle: saline with Tween-80.
[2] abbreviates: endpoint: mean survival time, dose: 200.0 mg/kg/injection, schedule: Q04DX003 (ip), vehicle: saline with Tween-80.
The mark [3] stands for this setting: endpoint: mean survival time, dose: 400.0 mg/kg/injection, schedule: Q04DX003 (ip), vehicle: saline with Tween-80.
Setting [4] is: endpoint: mean survival time, dose: 100.0 mg/kg/injection, schedule: Q01DX001 (ip), vehicle: saline with Tween-80.
[5] abbreviates: endpoint: mean survival time, dose: 200.0 mg/kg/injection, schedule: Q01DX001 (ip), vehicle: saline with Tween-80.
Setting [6] is: endpoint: mean survival time, dose: 400.0 mg/kg/injection, schedule: Q01DX001 (ip), vehicle: saline with Tween-80.
Setting [7] is: endpoint: mean survival time, dose: 100.0 mg/kg/injection, schedule: Q04DX003 (ip), vehicle: saline.
[8] abbreviates: endpoint: mean survival time, dose: 200.0 mg/kg/injection, schedule: Q04DX003 (ip), vehicle: saline.
The mark [9] stands for this setting: endpoint: mean survival time, dose: 400.0 mg/kg/injection, schedule: Q04DX003 (ip), vehicle: saline.
[10] abbreviates: endpoint: mean survival time, dose: 50.0 mg/kg/injection, schedule: Q01DX009 (ip), vehicle: saline with Tween-80.
Where [11] appears, read: endpoint: mean survival time, dose: 100.0 mg/kg/injection, schedule: Q01DX009 (ip), vehicle: saline with Tween-80.
Setting [12] is: endpoint: mean survival time, dose: 200.0 mg/kg/injection, schedule: Q01DX009 (ip), vehicle: saline with Tween-80.

Regarding `CCOC(=O)C1=C(N)SC(=O)C1`, the T/C was 100 % of control under setting [1], 104 % of control under setting [2] and 95 % of control under setting [3].

Regarding `COc1ccc(N=Nc2sc(N)nc2-c2cccc([N+](=O)[O-])c2)cc1`, the T/C is 93 % of control under setting [4], 90 % of control under setting [5] and 97 % of control under setting [6].

With `CN(N=O)C(N)=O`, the T/C (endpoint: mean survival time, dose: 5.0 mg/kg/injection, schedule: Q03DX003 (ip), vehicle: saline) is 112 % of control; the T/C (endpoint: mean survival time, dose: 5.0 mg/kg/injection, schedule: Q04DX003 (ip), vehicle: saline) was 117 % of control; the T/C (endpoint: mean survival time, dose: 10.0 mg/kg/injection, schedule: Q01DX007 (ip), vehicle: saline) was 166 % of control; the T/C (endpoint: mean survival time, dose: 10.0 mg/kg/injection, schedule: Q01DX009 (ip), vehicle: saline) was 175 % of control; the T/C (endpoint: mean survival time, dose: 20.0 mg/kg/injection, schedule: Q01DX007 (ip), vehicle: saline) is 124 % of control; the T/C (endpoint: mean survival time, dose: 20.0 mg/kg/injection, schedule: Q03DX003 (ip), vehicle: saline) is 156 % of control. The T/C was 172 % of control (endpoint: median survival time, dose: 12.0 mg/kg/injection, schedule: Q01DX009 (ip), vehicle: saline + alcohol); 113 % of control (endpoint: median survival time, dose: 14.0 mg/kg/injection, schedule: Q04DX003 (ip), vehicle: saline); 106 % of control (endpoint: median survival time, dose: 14.0 mg/kg/injection, schedule: Q07DX003 (ip), vehicle: saline + alcohol); 118 % of control (endpoint: median survival time, dose: 20.0 mg/kg/injection, schedule: Q07DX003 (ip), vehicle: saline + alcohol); 116 % of control (endpoint: median survival time, dose: 26.0 mg/kg/injection, schedule: Q07DX003 (ip), vehicle: saline + alcohol); 123 % of control (endpoint: median survival time, dose: 33.0 mg/kg/injection, schedule: Q07DX003 (ip), vehicle: saline + alcohol). Besides, the T/C was 151 % of control (endpoint: median survival time, dose: 36.0 mg/kg/injection, schedule: Q04DX003 (ip), vehicle: saline + alcohol); 160 % of control (endpoint: median survival time, dose: 40.0 mg/kg/injection, schedule: Q04DX003 (ip), vehicle: saline); 107 % of control (endpoint: median survival time, dose: 50.0 mg/kg/injection, schedule: Q01DX009 (ip), vehicle: saline + alcohol); 157 % of control (endpoint: median survival time, dose: 60.0 mg/kg/injection, schedule: Q04DX003 (ip), vehicle: saline + alcohol); 167 % of control (endpoint: median survival time, dose: 67.0 mg/kg/injection, schedule: Q04DX003 (ip), vehicle: saline); 97 % of control (endpoint: median survival time, dose: 100.0 mg/kg/injection, schedule: Q04DX003 (ip), vehicle: saline + alcohol).

In the case of `O=C(Nc1ccccc1F)c1ccccc1Cl`, the T/C (endpoint: mean survival time, dose: 100.0 mg/kg/injection, schedule: Q01DX009 (ip), vehicle: saline) was 98 % of control; the T/C under setting [7] is 106 % of control; the T/C (endpoint: mean survival time, dose: 200.0 mg/kg/injection, schedule: Q01DX009 (ip), vehicle: saline) was 92 % of control; the T/C under setting [8] was 104 % of control; the T/C (endpoint: mean survival time, dose: 400.0 mg/kg/injection, schedule: Q01DX009 (ip), vehicle: saline) is 98 % of control; the T/C under setting [9] was 97 % of control.

For `CCOC(=O)Nc1cc2c(c(N)n1)N=C(c1ccc(-c3ccccc3)cc1)CN2`, the T/C reads like this: (endpoint: mean survival time, dose: 0.78 mg/kg/injection, schedule: Q01DX009 (ip), vehicle: Klucel (hydroxypropylcellulose) (HPC)) 106 % of control; (endpoint: mean survival time, dose: 1.56 mg/kg/injection, schedule: Q01DX009 (ip), vehicle: Klucel (hydroxypropylcellulose) (HPC)) 112 % of control; (endpoint: mean survival time, dose: 3.12 mg/kg/injection, schedule: Q01DX009 (ip), vehicle: Klucel (hydroxypropylcellulose) (HPC)) 114 % of control and 111 % of control; (endpoint: mean survival time, dose: 6.25 mg/kg/injection, schedule: Q01DX009 (ip), vehicle: Klucel (hydroxypropylcellulose) (HPC)) 109 % of control; (endpoint: mean survival time, dose: 12.5 mg/kg/injection, schedule: Q01DX001 (ip), vehicle: Klucel (hydroxypropylcellulose) (HPC)) 115 % of control; (endpoint: mean survival time, dose: 12.5 mg/kg/injection, schedule: Q01DX009 (ip), vehicle: Klucel (hydroxypropylcellulose) (HPC)) 89 % of control. In addition, the T/C (endpoint: mean survival time, dose: 50.0 mg/kg/injection, schedule: Q01DX001 (ip), vehicle: Klucel (hydroxypropylcellulose) (HPC)) was 121 % of control.

For `NC(C(=O)O)C(CC(=O)O)C(=O)O` (stereo not given), the T/C (endpoint: mean survival time, dose: 100.0 mg/kg/injection, schedule: Q04DX002 (ip), vehicle: saline) is 111 % of control; the T/C (endpoint: mean survival time, dose: 200.0 mg/kg/injection, schedule: Q04DX002 (ip), vehicle: saline) is 106 % of control; the T/C (endpoint: mean survival time, dose: 400.0 mg/kg/injection, schedule: Q04DX002 (ip), vehicle: saline) was 106 % of control.

Consider `CS(=O)(=O)Nc1ccc2c(c1)C(=O)c1ccccc1C2=O`, for which the T/C was 101 % of control under setting [10], 101 % of control under setting [11] and 97 % of control under setting [12].

For the compound `CC(=O)COc1cc(C)cc(C)c1`, the T/C reads like this: under setting [4], 104 % of control; under setting [5], 95 % of control; under setting [6], 101 % of control.

Consider `NCC(Cl)c1ccccc1` (stereo not given), for which the T/C under setting [11] is 97 % of control and the T/C under setting [12] is 95 % of control.

Take `O=C(O)C(=O)O.O=C(O)C(=O)O.O=C(O)C(=O)O.[Fe]`: the T/C reads like this: (endpoint: mean survival time, dose: 25.0 mg/kg/injection, schedule: Q04DX002 (ip), vehicle: saline with Tween-80) 91 % of control; (endpoint: mean survival time, dose: 50.0 mg/kg/injection, schedule: Q04DX002 (ip), vehicle: saline with Tween-80) 91 % of control; (endpoint: mean survival time, dose: 100.0 mg/kg/injection, schedule: Q04DX002 (ip), vehicle: saline with Tween-80) 87 % of control.

In the case of `COC(=O)NC(/C=C/c1ccccc1)c1ccccc1` (stereo not given), the T/C runs as follows: (endpoint: mean survival time, dose: 100.0 mg/kg/injection, schedule: Q04DX003 (ip), vehicle: other) 94 % of control; (endpoint: mean survival time, dose: 200.0 mg/kg/injection, schedule: Q04DX003 (ip), vehicle: other) 97 % of control; (endpoint: mean survival time, dose: 400.0 mg/kg/injection, schedule: Q04DX003 (ip), vehicle: other) 97 % of control.

Consider `C[NH-].[Cl][Pt+2][Cl].[NH-]C1CC1`, for which the T/C was 103 % of control (endpoint: mean survival time, dose: 1.56 mg/kg/injection, schedule: Q04DX003 (ip), vehicle: saline); 113 % of control (endpoint: mean survival time, dose: 3.12 mg/kg/injection, schedule: Q04DX003 (ip), vehicle: saline with Tween-80); 103 % of control (endpoint: mean survival time, dose: 3.12 mg/kg/injection, schedule: Q04DX003 (ip), vehicle: saline); 120 % of control (endpoint: mean survival time, dose: 6.25 mg/kg/injection, schedule: Q04DX003 (ip), vehicle: saline); 104 % of control (endpoint: mean survival time, dose: 12.5 mg/kg/injection, schedule: Q04DX003 (ip), vehicle: saline with Tween-80).

Regarding `N=c1nc(N)nc(N)n1-c1ccccc1`, the T/C by setting is: under setting [10], 98 % of control; under setting [11], 102 % of control; under setting [12], 102 % of control.

As for `N#CSc1ccc2c(ccn2C2OCC(O)C(O)C2O)c1` (stereo not given), the T/C is, setting by setting: (endpoint: mean survival time, dose: 12.5 mg/kg/injection, schedule: Q01DX005 (ip), vehicle: other) 93 % of control; (endpoint: mean survival time, dose: 25.0 mg/kg/injection, schedule: Q01DX005 (ip), vehicle: other) 93 % of control; (endpoint: mean survival time, dose: 50.0 mg/kg/injection, schedule: Q01DX005 (ip), vehicle: other) 101 % of control.

As for `COc1cc(NC2CCCCC2O)c2nc(-c3ccc(Cl)cc3)ccc2c1` (stereo not given), the T/C by setting is: (endpoint: mean survival time, dose: 50.0 mg/kg/injection, schedule: Q04DX003 (ip), vehicle: saline) 110 % of control; under setting [7], 96 % of control; under setting [8], 107 % of control; under setting [9], 112 % of control.

Take `CCCCCCOC(=O)C(O)c1ccccc1` (stereo not given): the T/C is 103 % of control under setting [1], 103 % of control under setting [2] and 97 % of control under setting [3].

Consider `O=C(Nc1ncccn1)Nc1cc([N+](=O)[O-])ccc1F`, for which the T/C (endpoint: mean survival time, dose: 50.0 mg/kg/injection, schedule: Q01DX009 (ip), vehicle: Klucel (hydroxypropylcellulose) (HPC)) was 93 % of control; the T/C (endpoint: mean survival time, dose: 100.0 mg/kg/injection, schedule: Q01DX009 (ip), vehicle: Klucel (hydroxypropylcellulose) (HPC)) is 96 % of control; the T/C (endpoint: mean survival time, dose: 200.0 mg/kg/injection, schedule: Q01DX009 (ip), vehicle: Klucel (hydroxypropylcellulose) (HPC)) was 98 % of control.
